We go through eleven molecules from patent publication US7169789B2 (Kirin Beer Kabushiki Kaisha, priority 1999, dated 2007).

For series [1], the system named is activation of MAPK within vascular endothelial cells induced by VEGF stimulation. The experiment in a line: Inhibitory activity against activation of MAPK within vascular endothelial cells induced by VEGF stimulation. In kind it is cell-based. The following applies: human funicular venous vascular endothelial cells, VEGF 50 ng/ml, phosphorylated MAPK by immunoblotting. In short, it runs like this:
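Serum-starved (0.5% FCS, 24 h) human umbilical vein endothelial cells pretreated with compound 1 h at 37 °C, then stimulated with 50 ng/ml recombinant human VEGF for 8 min.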
For orientation: In western blotting, separated proteins are transferred to a membrane and probed.

The test system of series [2] is A375 human melanoma cells. Description: Karyomorphosis test. The series is classed as cell-based. The following applies: test compound 10 μM and 1 μM, 48 hr, nuclei stained with propidium iodide. The procedure: A375 human melanoma cells (2×10^4) (obtained from Japanese Foundation for Cancer Research) were incolulated on a culture slide (manufactured by Falcon) and were cultured at 37° C. After the elapse of 5 hr from the initiation of the cultivation, the test compound was added to 10 μM and 1 μM, and the cultivation was continued for additional 48 hr. After the fixation of cells, 50 μg/ml propidium iodide solution containing ribonuclease (200 μg/ml) was added to stain nuclei. The stained nuclei were observed under a fluorescent microscope to analyze the nuclei for abnormality of karyomorphosis.

The test system of a further series is Human glioma cells GL07. The experiment in a line: Antitumor effect on human glioma cells (GL07) transplanted into nude mice. The following applies: 20 mg/kg once a day for 9 days; for inhibition in vivo at 20 mg/kg: Mus musculus, Glioma cell, 216 h, read-out: TGIR, % (tumor growth inhibition rate). The series is classed as in vivo. The method, boiled down: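 GL07 xenografts in nude mice, grouped (n=4) at ~100 mm^3 tumor volume. Test compound 20 mg/kg p.o. or i.p. once daily for 9 days; vehicle controls. TGIR = (1−Tx/Cx)×100 from tumor volumes normalized to day-of-start volume = 1.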

SMILES strings stand for the structures. Like-named read-outs stand apart in the source and are kept apart here.

A word on the IC50: it is the concentration that gives 50% inhibition. In series [1] (Endothelial cell), `COc1cc2nccc(Oc3ccc(NC(=O)Nc4ccc(F)cc4C)c(Cl)c3)c2cc1OC` [Example 14, N-{2-Chloro-4-[(6,7-dimethoxy-4-quinolyl)oxy]phenyl}-N′-(4-fluoro-2-methylphenyl)urea] gave a concentration for half-maximal inhibition (IC50) of 0.7 nM. In addition, the Change in morphosis entry in series [2] is given as “(−) (the change in karyomorphosis of cells did not take place at 10 μM)”. The inhibition in vivo at 20 mg/kg in the series with Human glioma cells GL07 (ip, GL07, intraperitoneal) was found to be 81%.

`COc1cc2nccc(Oc3cc(C)c(NC(=O)Nc4ccc(F)cc4F)cc3C)c2cc1OC` [Example 37, N-(2,4-Difluorophenyl)-N′-{4-[(6,7-dimethoxy-4-quinolyl)oxy]-2,5-dimethylphenyl}urea]: in series [1] (Endothelial cell), the IC50 was 2.3 nM. In addition, in series [2], the Change in morphosis entry was “(−) (the change in karyomorphosis of cells did not take place at 10 μM)”. Moreover, in the series with Human glioma cells GL07 (ip, GL07, intraperitoneal), the inhibition in vivo at 20 mg/kg came to 70%.

`COc1cc2nccc(Oc3ccc(NC(=O)Nc4ccc(Br)cn4)c(Cl)c3)c2cc1OC` [Example 17, N-(5-Bromo-2-pyridyl)-N′-{2-chloro-4-[(6,7-dimethoxy-4-guinolyl)oxy]phenyl}urea]: in series [1], half-maximal inhibition (IC50) required 11 nM. For the same molecule, the Change in morphosis entry in series [2] was “(−) (the change in karyomorphosis of cells did not take place at 10 μM)”. The “TGIR, % (tumor growth inhibition rate)” value with Human glioma cells GL07 (GL07, intraperitoneal) is given as 85%.

With `COc1ccccc1NC(=O)Nc1ccc(Oc2ccnc3cc(OC)c(OC)cc23)cc1Cl` [Example 18, N-{2-Chloro-4-[(6,7-dimethoxy-4-quinolyl)oxy]phenyl}-N′-(2-methoxyphenyl)urea], 0.6 nM corresponded to half-maximal inhibition in series [1] (Endothelial cell) (IC50). The Change in morphosis entry in series [2] is reported as “(−) (the change in karyomorphosis of cells did not take place at 10 μM)”. Also, the inhibition in vivo at 20 mg/kg in the series with Human glioma cells GL07 (GL07, oral) was found to be 57%.

`CCCNC(=O)Nc1ccc(Oc2ccnc3cc(OC)c(OC)cc23)cc1Cl` [Example 13, N-{2-chloro-4-[(6,7-dimethoxy-4-quinolyl)oxy]-phenyl}-N′-propylurea]: the concentration for half-maximal inhibition (IC50) in series [1] (Endothelial cell) was determined as 2.2 nM. The Change in morphosis result in series [2] is on record as “(−) (the change in karyomorphosis of cells did not take place at 10 μM)”. The inhibition in vivo at 20 mg/kg with Human glioma cells GL07 (ip, GL07, intraperitoneal) came out at 52%.

`COc1cc2nccc(Oc3ccc(NC(=O)Nc4ccc(Cl)cn4)c(C)c3C)c2cc1OC` [Example 28, N-(5-Chloro-2-pyridyl)-N′-{4-[(6,7-dimethoxy-4-guinolyl)oxy]-2,3-dimethylphenyl}urea] registered a half-maximal inhibitory concentration (IC50) in series [1] of 4 nM. Also, the Change in morphosis entry in series [2] was “(−) (the change in karyomorphosis of cells did not take place at 10 μM)”. In the series with Human glioma cells GL07 (GL07, intraperitoneal), the “TGIR, % (tumor growth inhibition rate)” value was found to be 84%.

In the case of `COc1cc2nccc(Oc3ccc(NC(=O)Nc4ccc(F)cc4F)c([N+](=O)[O-])c3)c2cc1OC` [Example 48, N-(2,4-Difluorophenyl)-N′-{4-[(6,7-dimethoxy-4-quinolyl)oxy]-2-nitrophenyl}urea], the concentration for half-maximal inhibition (IC50) in series [1] (Endothelial cell) amounted to 0.5 nM. The Change in morphosis entry in series [2] is recorded as “(−) (the change in karyomorphosis of cells did not take place at 10 μM)”. The inhibition in vivo at 20 mg/kg with Human glioma cells GL07 (ip, GL07, intraperitoneal) was 90%.

For the molecule `COc1cc2nccc(Oc3ccc(NC(=O)Nc4ccc(Cl)cn4)c(Cl)c3)c2cc1OC` [Example 16, N-{2-Chloro-4-[(6,7-dimethoxy-4-quinolyl)oxy]phenyl}-N′-(5-chloro-2-pyridyl)urea], the concentration for half-maximal inhibition (IC50) in series [1] (Endothelial cell) was found to be 2.9 nM. Also, in series [2], the Change in morphosis entry is “(−) (the change in karyomorphosis of cells did not take place at 10 μM)”. The inhibition in vivo at 20 mg/kg in the series with Human glioma cells GL07 (ip, GL07, intraperitoneal) is 77%.

In the case of `CCCNC(=O)Nc1ccc(Oc2ncnc3cc(OC)c(OC)cc23)cc1Cl` [Example 62, N-{2-chloro-4-[(6,7-dimethoxy-4-quinazolinyl)-oxy]phenyl}-N′-propylurea], the 50% inhibitory concentration (IC50) in series [1] (Endothelial cell) is 16 nM. In addition, the Change in morphosis result in series [2] is “(−) (the change in karyomorphosis of cells did not take place at 10 μM)”. The inhibition in vivo at 20 mg/kg in the series with Human glioma cells GL07 (GL07, oral) stood at 78%.

`COc1cc2nccc(Oc3ccc(NC(=O)Nc4ccc(Br)cn4)c(C)c3C)c2cc1OC` [Example 29, N-(5-Bromo-2-pyridyl)-N′-{4-[(6,7-dimethoxy-4-quinolyl)oxy]-2,3-dimethylphenyl}urea] registered a half-maximal inhibitory concentration (IC50) in series [1] (Endothelial cell) of 4.4 nM. In addition, the Change in morphosis result in series [2] is listed as “(−) (the change in karyomorphosis of cells did not take place at 10 μM)”. In addition, in the series on Human glioma cells GL07 (GL07, oral), the inhibition in vivo at 20 mg/kg was found to be 64%.

`COc1cc2nccc(Oc3ccc(NC(=O)Nc4ccc(F)cc4C)c(C)c3C)c2cc1OC` [Example 25, N-{4-[(6,7-Dimethoxy-4-guinolyl)oxy]-2,3-dimethylphenyl}-N′-(4-fluoro-2-methylphenyl)urea]: the midpoint of inhibition in series [1], the IC50, lay at 3.9 nM. The Change in morphosis result in series [2] is “(−) (the change in karyomorphosis of cells did not take place at 10 μM)”. Also, in the series with Human glioma cells GL07 (GL07, intraperitoneal), the “TGIR, % (tumor growth inhibition rate)” value came to 68%.
